In patent publication US8895544B2, “Indazoles” (Pfizer Limited, priority 2011, dated 2014):
Where a name gives a salt, the structure may show the parent alone.

What was measured:
[1] = system: pYSTAT5 in PBMC lymphocytes; experiment: Duration of action (DoA) after washout, pYSTAT5 in PBMC lymphocytes; format: cell-based, human; settings: incubated at approximate IC80 for 1 h, then washed
Description: 90 μl of PBMC cell suspension was added to each well of a 96 well plate (Corning-Costar 3598) along with 10 μl of test compound dilution giving a final assay concentration range of 0.03 nM to 1 μM in half log increments. The plates were incuated at 37° C., in […] for 1 h before 10 μl rhIL2 (3 μg/ml final assay concentration) was added to appropriate wells and the plates incubated at the stated conditions for a further 15 min. 25 μl of 20% formaldehyde (Tousimis) was added to all wells and the plates left at room temperature for 10 min prior to centrifugation at 400 g for 4 min at room temperature. 200 μl PBS was added to each well and centrifugation repeated as just described. The supernatent was removed and 50 μl of a 1:50 dilution of Mouse anti-human CD3 (BD Biosciences 555329) in 0.1% BSA (Sigma A7906)/PBS added to each well (excluding control wells) and the plates incubated at room temperature in the dark for 30 min. […] Plates were read the next day on a FACS Canto (Becton Dickinson). […]
For determination of compound duration of action (DoA) cells were incubated with compound at an approximate IC80 concentration for 1 h before being washed by cenrifugation and resuspension in assay media without compound. […] DoA was calculated as the time taken for the inhibition to reverse by 50% (T50%)

[2] = system: IFNγ production in human isolated PBMC; experiment: hrIL2/haCD3 stimulated IFNγ production in human isolated PBMC; format: cell-based; settings: IL-2/aCD3 stimulated IFNγ, 18 h
Description: Functional Assessment of JAK Inhibitory Potency Using hrIL-2 and haCD3 stimuated IFNγ Production in Human Isolated PBMC.
(§1) Isolation of human Peripheral Blood Mononuclear Cells (PBMC)
Peripheral venous blood from healthy volunteers of either sex was collected into 50 ml centrifuge tubes (Corning) containing 1 ml of 5 mg/ml heparin (Sigma H3400) in distilled water. The heparininsed blood was diluted using an equal volume of sterile Dulbeccos phosphate buffered saline (PBS: Invitrogen 14190) before decanting into 50 ml Leucosep tubes (Sigma A0561). […]
180 μl of PBMC cell suspension was added to each well of a sterile 96 well, flat bottomed plate (Corning-Costar 3598). […] 100 μl supernatent was collected, diluted 1:4 and IFNγ content determined using a commercially available IFNγ ELISA kit (Invitrogen CHC1233) as per the manufacturer's instructions. Absorbances were measured using a Spectramax 190/250 plate reader (Molecular Devices). The IFNγ concentration of test wells was expressed as % of the IFNγ concentration produced in wells exposed to IL-2/aCD3 in the absence of test compound, and IC50 values determined using a 4 parameter curve fit.

JAK2 = JAK2 (Homo sapiens (Human), UniProt O60674); experiment: JAK2 PathHunter assay (prolactin response, U2OS cell line); format: cell-based; settings: PathHunter U2OS cell line expressing JAK2, prolactin challenge; read-out: JAK-2 IC50
Description: JAK1 and JAK2 PathHunter Assay
4 mM stock solutions of test compounds are prepared and serially diluted in 100% DMSO. A standard curve using PF-00956980 at a top concentration of 10 mM is also prepared. High percentage effect (HPE) is defined by 10 mM PF-00956980 and 0% effect (ZPE) is defined by 100% DMSO. Plates containing 1 μl of serially diluted compound, standard and HPE/ZPE are diluted by addition of 65 μl compound diluent (PBS minus Ca^2+, minus Mg^2+ with 0.05% pluronic F127) using a Multidrop Combi. This dilutes test compounds to a top concentration of 60 μM. Final top assay concentration is 10 μM as the assay dilution factor is six. Final DMSO concentration is 0.25%.
Prolactin (Peprotech) is used for the agonist challenge. Prolactin is prepared at 40 μM in compound diluent to generate a stock solution and further diluted to 6 μM in compound diluent. A standard curve is prepared in compound diluent. Prolactin is also diluted to a concentration of 15 nM (2.5 nM fac). Antagonism of the JAK1 or JAK2 prolactin response is measured in the presence of prolactin at an approximate […], concentration for JAK1 and approximately EC100 for JAK2. […]
Assays are performed in Greiner white 384 well plates. […] Luminescence signal is read using an Envision. Test compound data are expressed as percentage inhibition defined by HPE and ZPE values for each plate. […]

JAK1/3 = JAK1/3 whole cell reporter gene assay (IL-4 stimulated STAT6-beta-lactamase reporter); format: cell-based; settings: Cellsensor STAT6-bla-RA-1 cell line, CD40 ligand and IL-4 stimulated
Description: JAK1/3 Whole Cell Reporter Gene Assay
4 mM stock solutions of test compounds are prepared and serially diluted in 100% DMSO. A standard curve using PF-00956980 at a top concentration of 10 mM is also prepared. High percentage effect (HPE) is defined by 10 mM PF-00956980 and 0% effect (ZPE) is defined by 100% DMSO. Plates containing 1 μl of serially diluted compound, standard and HPE/ZPE are diluted by addition of 39 μl assay media (Optimem with 100 uM NEAA, 10 uM sodium pyruvate and 100 U penicillin/100 ug streptomycin (Invitrogen)) using a Multidrop Combi. This dilutes test compounds to a top concentration of 100 μM. Final top assay concentration is 10 μM as the assay dilution factor is ten. Final DMSO concentration is 0.25%.
CD40 (Invitrogen) is prepared at 0.1 mg/ml in PBS minus Ca^2+, minus Mg^2+. The concentration of CD40 required for activation is predetermined by CD40 titration with the cell line. […]
Assays are performed in Greiner 384 well black polypropylene clear bottomed plates. The Invitrogen Cellsensor STATE-bla-RA-1 cell line is thawed, counted and resuspended at 1.88×10^6 cells/ml. […] Beta lactamase fluorescence signal is read at 460 nm (blue) and 530 nm (green) and a ratio calculated using an Envision. Test compound data are expressed as percentage inhibition defined by HPE and ZPE values for each plate. […]

JAK3 enzyme = JAK3 enzyme (Homo sapiens (Human), UniProt P52333); experiment: JAK3 isolated enzyme high ATP Caliper endpoint assay; format: biochemical; settings: 400 μM ATP, read-out: JAK-3 IC50
Description: JAK3 Isolated Enzyme High ATP Caliper Endpoint Assay
4 mM stock solutions of test compounds are prepared and serially diluted in 100% DMSO. […] Greiner 384 well plates are prepared containing 400 nl of serially diluted compound, standard and HPE/ZPE. Final top assay concentration is 80 μM as the assay dilution factor is fifty.
JAK3 enzyme stock is diluted to 2 nM in assay buffer (10 mM HEPES free acid pH 7.5, 10 mM HEPES free base pH 7.5, 10 mM MgCL2, 0.0005% Tween-20, 0.01% BSA) containing 2 mM DTT (all supplied by Sigma). ATP is made up at 10 mM stock in sterile water and diluted to 800 μM in assay buffer. Peptide (American peptide company) is made up at 30 mM in 100% DMSO and diluted to 3 μM in assay buffer.
Assays are performed in Greiner polypropylene 384 well plates. Following compound preparation within the plate 10 μl of enzyme in assay buffer containing DTT is added using a Multidrop Micro. Final assay concentration of enzyme is 1 nM. Compound and enzyme are pre-incubated for 60 minutes at room temperature using low evaporation lids before addition of 10 μl ATP/peptide mixture in assay buffer using a Multidrop Micro. […] Plates are foil sealed and incubated for a further 60 minutes at room temperature. Stop solution is added to the plates (20 μl/well) using a Multidrop Micro and plates are loaded onto the Caliper EZReader II. Data is generated by the shift in mobility of non-phosphorylated peptide substrates and phosphorylated products by electrophoresis within a chip and detected via LED induced fluorescence. Data is analysed using LabChip EZReader software which calculates the relative heights of the substrate and product peaks and reports product/product plus substrate peak ratio. Test compound data are subsequently expressed as percentage inhibition defined by HPE and ZPE values for each plate. Percentage inhibition in the presence of test compound is plotted against compound concentration on a log scale to determine an IC50 from the resultant sigmoid curve.

[3] = system: pYSTAT5 in PBMC lymphocytes; experiment: hrIL2/haCD3 stimulated pYSTAT5 in PBMC lymphocytes; format: cell-based; settings: rhIL2 stimulated pYSTAT5, human PBMC lymphocytes
Description: as §1
Peripheral venous blood from healthy volunteers of either sex was collected into 50 ml centrifuge tubes (Corning) containing 1 ml of 5 mg/ml heparin (Sigma H3400) in distilled water. The heparininsed blood was diluted using an equal volume of sterile Dulbeccos phosphate buffered saline (PBS: Invitrogen 14190) before decanting into 50 ml Leucosep tubes (Sigma A0561). The Leucosep tubes were centrifuged at 400 g for 30 min at room temperature and the buffycoat at the Ficoll:Plamsa interface collected into clean centrifuge tubes and the volum made up to 50 ml using PBS and centrifuging at 200 g for 10 min at room temperature. The supernatent was discarded and the pellet resuspended in assay media (Dulbeccos Modified Essential Medium (DMEM: Invitrogen 11971025) containing 5% Foetal Bovine Serum, 100 U/mIpenicilin/100 μg/ml streptomycin (Sigma P4458) at 2×10^6 lymphocytes per ml for IFNγ experiments and at 1×10^6 lymphocytes per ml for the pYSTAT5 experiments.
hrIL2/haCD3 Stimulated pYSTAT5 in PBMC Lymphocytes
90 μl of PBMC cell suspension was added to each well of a 96 well plate (Corning-Costar 3598) along with 10 μl of test compound dilution giving a final assay concentration range of 0.03 nM to 1 μM in half log increments. […] Plates were read the next day on a FACS Canto (Becton Dickinson). […]

JAK1 enzyme = JAK1 enzyme (Homo sapiens (Human), UniProt P23458); experiment: JAK1 isolated enzyme high ATP Caliper endpoint assay; format: biochemical; settings: 2.5 mM ATP, read-out: JAK-1 IC50;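 further: enzyme at 10 nM preincubated with inhibitor 30 min, then kinase reaction 120 min at room temperature, peptide phosphorylation read by microfluidic mobility shift with fluorescence, inhibition relative to HPE and ZPE plate controls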
Sequence of JAK1 enzyme (P23458 whole entry): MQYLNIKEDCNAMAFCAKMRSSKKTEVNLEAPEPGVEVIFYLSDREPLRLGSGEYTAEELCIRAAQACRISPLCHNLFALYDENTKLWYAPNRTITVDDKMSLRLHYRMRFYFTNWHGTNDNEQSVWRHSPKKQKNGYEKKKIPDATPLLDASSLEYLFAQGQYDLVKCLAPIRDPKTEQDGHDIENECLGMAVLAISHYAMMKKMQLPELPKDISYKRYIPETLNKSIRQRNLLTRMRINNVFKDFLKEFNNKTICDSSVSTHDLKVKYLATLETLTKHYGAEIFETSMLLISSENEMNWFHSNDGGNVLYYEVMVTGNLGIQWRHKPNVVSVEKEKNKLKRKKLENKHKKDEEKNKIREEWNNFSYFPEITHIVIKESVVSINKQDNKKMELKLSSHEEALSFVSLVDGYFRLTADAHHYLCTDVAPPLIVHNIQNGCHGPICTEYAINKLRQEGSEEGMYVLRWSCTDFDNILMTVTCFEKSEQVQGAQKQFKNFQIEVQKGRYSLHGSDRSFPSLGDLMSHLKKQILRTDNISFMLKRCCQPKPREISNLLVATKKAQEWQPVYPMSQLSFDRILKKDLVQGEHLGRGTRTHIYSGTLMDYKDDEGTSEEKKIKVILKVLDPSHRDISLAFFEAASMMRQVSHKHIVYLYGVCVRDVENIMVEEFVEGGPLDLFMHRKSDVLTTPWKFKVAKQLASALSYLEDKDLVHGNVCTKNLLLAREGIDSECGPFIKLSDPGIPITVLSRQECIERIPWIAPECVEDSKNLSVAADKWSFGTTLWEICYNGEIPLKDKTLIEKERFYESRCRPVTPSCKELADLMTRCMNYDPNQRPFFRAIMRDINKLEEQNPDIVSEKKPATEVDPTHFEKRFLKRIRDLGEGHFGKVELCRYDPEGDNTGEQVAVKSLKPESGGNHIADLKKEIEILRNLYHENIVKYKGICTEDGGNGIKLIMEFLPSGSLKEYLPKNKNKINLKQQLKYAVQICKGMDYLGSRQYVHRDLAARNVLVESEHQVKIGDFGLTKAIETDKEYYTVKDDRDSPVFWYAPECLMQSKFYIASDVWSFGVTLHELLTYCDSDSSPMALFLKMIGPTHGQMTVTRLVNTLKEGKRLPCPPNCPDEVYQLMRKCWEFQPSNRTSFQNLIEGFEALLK
Description: JAK1 Isolated Enzyme High ATP Caliper Endpoint Assay
4 mM stock solutions of test compounds are prepared and serially diluted in 100% DMSO. A standard curve using PF-00956980 (commercially available from Sigma Aldrich) at a top concentration of 4 mM is also prepared. High percentage effect (HPE) is defined by 500 μM PF-00956980 and 0% effect (ZPE) is defined by 100% DMSO. Greiner 384 well plates are prepared containing 400 nl of serially diluted compound, standard and HPE/ZPE. Final top assay concentration is 80 μM as the assay dilution factor is fifty.
JAK1 enzyme (Invitrogen) stock solution is made up at 5.2 μM in sterile water. JAK1 enzyme stock is diluted to 20 nM in assay buffer (10 mM HEPES free acid pH 7.5, 10 mM HEPES free base pH 7.5, 10 mM MgCL2, 0.0005% Tween-20, 0.01% BSA) containing 2 mM DTT (all supplied by Sigma) with the addition of one protease tablet per 25 mls buffer (Roche). ATP is made up at 10 mM stock in sterile water and diluted to 5 mM in assay buffer. Peptide H236 (Caliper Life Sciences) is made up at 1.5 mM in 100% DMSO and diluted to 3 μM in assay buffer. Stop buffer comprises 140 mM HEPES, 22.5 mM EDTA (Sigma) and 0.15% coating reagent (Caliper Life Sciences).
Assays are performed in Greiner polypropylene 384 well plates. Following compound preparation within the plate 10 μl of enzyme in assay buffer containing DTT is added using a Multidrop Micro. Final assay concentration of enzyme is 10 nM. Compound and enzyme are pre-incubated for 30 minutes at room temperature using low evaporation lids before addition of 10 μl ATP/peptide mixture in assay buffer using a Multidrop Micro. Final assay concentrations are 2.5 mM ATP and 1.5 μM peptide. Plates are foil sealed and incubated for a further 120 minutes at room temperature. Stop solution is added to the plates (20 μl/well) using a Multidrop Micro and plates are loaded onto the Caliper EZReader II. Data is generated by the shift in mobility of non-phosphorylated peptide substrates and phosphorylated products by electrophoresis within a chip and detected via LED induced fluorescence. Data is analysed using LabChip EZReader software which calculates the relative heights of the substrate and product peaks and reports product/product plus substrate peak ratio. Test compound data are subsequently expressed as percentage inhibition defined by HPE and ZPE values for each plate. Percentage inhibition in the presence of test compound is plotted against compound concentration on a log scale to determine an IC50 from the resultant sigmoid curve.

Sequence of JAK3 enzyme (P52333 whole entry): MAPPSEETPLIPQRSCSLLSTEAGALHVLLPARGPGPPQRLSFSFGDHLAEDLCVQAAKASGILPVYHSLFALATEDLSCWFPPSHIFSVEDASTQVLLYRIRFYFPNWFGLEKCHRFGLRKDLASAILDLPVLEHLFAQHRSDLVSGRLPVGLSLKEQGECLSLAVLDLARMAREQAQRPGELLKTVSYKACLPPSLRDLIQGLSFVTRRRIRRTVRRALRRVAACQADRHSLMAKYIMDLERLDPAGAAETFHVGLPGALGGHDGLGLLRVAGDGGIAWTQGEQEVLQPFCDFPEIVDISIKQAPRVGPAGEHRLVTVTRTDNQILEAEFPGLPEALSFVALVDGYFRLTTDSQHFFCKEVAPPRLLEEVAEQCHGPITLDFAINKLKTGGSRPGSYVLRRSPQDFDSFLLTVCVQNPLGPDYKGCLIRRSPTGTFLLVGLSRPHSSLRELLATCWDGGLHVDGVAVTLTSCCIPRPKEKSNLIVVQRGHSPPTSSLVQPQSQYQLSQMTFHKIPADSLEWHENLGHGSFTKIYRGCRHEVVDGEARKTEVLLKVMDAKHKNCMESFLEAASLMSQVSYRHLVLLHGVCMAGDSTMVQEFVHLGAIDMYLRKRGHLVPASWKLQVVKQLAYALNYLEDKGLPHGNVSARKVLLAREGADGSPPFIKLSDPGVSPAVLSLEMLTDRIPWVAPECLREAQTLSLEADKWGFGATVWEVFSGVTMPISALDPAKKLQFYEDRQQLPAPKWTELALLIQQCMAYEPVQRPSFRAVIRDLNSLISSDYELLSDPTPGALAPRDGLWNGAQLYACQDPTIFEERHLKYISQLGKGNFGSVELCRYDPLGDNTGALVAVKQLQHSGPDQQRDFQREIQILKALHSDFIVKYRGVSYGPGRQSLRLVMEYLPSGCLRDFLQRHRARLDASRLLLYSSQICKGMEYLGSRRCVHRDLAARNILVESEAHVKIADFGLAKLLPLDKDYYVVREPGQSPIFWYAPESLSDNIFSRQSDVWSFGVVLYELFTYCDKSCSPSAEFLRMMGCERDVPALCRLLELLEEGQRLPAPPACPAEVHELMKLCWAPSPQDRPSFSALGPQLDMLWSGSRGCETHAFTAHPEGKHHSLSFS
Sequence of JAK2 (O60674 whole entry): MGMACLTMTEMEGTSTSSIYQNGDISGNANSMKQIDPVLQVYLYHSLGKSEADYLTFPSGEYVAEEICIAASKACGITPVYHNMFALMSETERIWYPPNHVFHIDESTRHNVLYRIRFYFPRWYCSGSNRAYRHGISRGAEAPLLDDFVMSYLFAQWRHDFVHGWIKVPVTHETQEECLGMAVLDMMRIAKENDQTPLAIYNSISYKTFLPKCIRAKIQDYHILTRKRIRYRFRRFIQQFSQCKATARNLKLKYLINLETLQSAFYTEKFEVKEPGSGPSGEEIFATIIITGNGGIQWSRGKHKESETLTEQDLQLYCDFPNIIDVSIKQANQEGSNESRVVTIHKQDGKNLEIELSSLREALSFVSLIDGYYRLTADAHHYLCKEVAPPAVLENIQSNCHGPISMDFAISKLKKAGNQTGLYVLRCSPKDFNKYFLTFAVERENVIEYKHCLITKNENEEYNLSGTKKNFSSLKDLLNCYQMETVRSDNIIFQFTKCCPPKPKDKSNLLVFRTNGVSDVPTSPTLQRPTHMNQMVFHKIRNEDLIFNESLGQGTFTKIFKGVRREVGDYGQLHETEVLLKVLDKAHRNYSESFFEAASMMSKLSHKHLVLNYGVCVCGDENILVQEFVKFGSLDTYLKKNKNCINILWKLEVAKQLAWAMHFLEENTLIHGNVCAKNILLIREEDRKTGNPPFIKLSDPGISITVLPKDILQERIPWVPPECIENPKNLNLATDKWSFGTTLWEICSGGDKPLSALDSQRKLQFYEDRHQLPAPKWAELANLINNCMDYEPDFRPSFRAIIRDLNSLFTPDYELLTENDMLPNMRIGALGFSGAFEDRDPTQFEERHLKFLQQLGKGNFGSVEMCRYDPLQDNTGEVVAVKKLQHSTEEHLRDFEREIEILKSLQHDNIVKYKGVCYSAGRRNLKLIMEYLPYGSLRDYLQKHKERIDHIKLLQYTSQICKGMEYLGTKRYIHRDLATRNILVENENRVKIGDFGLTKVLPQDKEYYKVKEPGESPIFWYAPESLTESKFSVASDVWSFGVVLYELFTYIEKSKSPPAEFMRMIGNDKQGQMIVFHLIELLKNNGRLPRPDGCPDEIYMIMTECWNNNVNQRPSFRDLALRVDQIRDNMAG

Compound	DoA (time taken for the inhibition to reverse by 50%, T50%) [1] [h]	IC50 [2] [nM]	IC50 (JAK2) [nM]	IC50 (JAK1/3) [nM]	IC50 (JAK3 enzyme) [nM]	IC50 [3] [nM]	IC50 (JAK1 enzyme) [nM]
CCc1cc(O)c(F)cc1-c1ccc2c(-c3nc4c([nH]3)CCN(C(=O)c3cnc(N5CCCCC5)cn3)C4)n[nH]c2c1 [Example 4, {2-[6-(2-Ethyl-5-fluoro-4-hydroxy-phenyl)-1H-indazol-3-yl]-1,4,6,7-tetrahydro-imidazo[4,5-c]pyridin-5-yl}-(5-piperidin-1-yl-pyrazin-2-yl)-methanone]	> 8.8	70	176	140	0.5	45	
CCc1cc(O)c(F)cc1-c1ccc2c(-c3nc4c([nH]3)CCN(Cc3ccc(Oc5ccccc5)nc3)C4)n[nH]c2c1 [Example 24, 5-Ethyl-2-fluoro-4-{3-[5-(6-phenoxy-pyridin-3-ylmethyl)-4,5,6,7-tetrahydro-1H-imidazo[4,5-c]pyridin-2-yl]-1H-indazol-6-yl}-phenol]					2.4		6.2
CCc1cc(O)c(F)cc1-c1ccc2c(-c3nc4c([nH]3)CCN(Cc3cccnc3C#N)C4)n[nH]c2c1 [Example 26, 3-{2-[6-(2-Ethyl-5-fluoro-4-hydroxy-phenyl)-1H-indazol-3-yl]-1,4,6,7-tetrahydro-imidazo[4,5-c]pyridin-5-ylmethyl}-pyridine-2-carbonitrile]					4.1		4
CCc1cc(O)c(F)cc1-c1ccc2c(-c3nc4c([nH]3)CCN(Cc3ccc5cccnc5n3)C4)n[nH]c2c1 [Example 28, 5-Ethyl-2-fluoro-4-[3-(5-[1,8]naphthyridin-2-ylmethyl-4,5,6,7-tetrahydro-1H-imidazo[4,5-c]pyridin-2-yl)-1H-indazol-6-yl]-phenol]					10.9		13.7
O=C(c1cnc(N2CCCCC2)cn1)N1CCc2[nH]c(-c3n[nH]c4cc(-c5cc(F)c(O)cc5CC(F)(F)F)ccc34)nc2C1 [Example 29, (2-{6-[5-Fluoro-4-hydroxy-2-(2,2,2-trifluoro-ethyl)-pheny]-1H-indazol-3-yl}-1,4,6,7-tetrahydro-imidazo[4,5-c]pyridin-5-yl)-(5-piperidin-1-yl-pyrazin-2-yl)-methanone diethylamine salt]					42		1.1
O=C(c1ccc(F)cc1)N1CCc2[nH]c(-c3n[nH]c4cc(-c5cc(F)c(O)cc5CC(F)(F)F)ccc34)nc2C1 [Example 30, (2-{6-[5-Fluoro-4-hydroxy-2-(2,2,2-trifluoro-ethyl)-phenyl]-1H-indazol-3-yl}-1,4,6,7-tetrahydro-imidazo[4,5-c]pyridin-5-yl)-(4-fluoro-phenyl)-methanone diethylamine salt]					6.7		7.7
Oc1cc(CC(F)(F)F)c(-c2ccc3c(-c4nc5c([nH]4)CCN(Cc4ccccc4)C5)n[nH]c3c2)cc1F [Example 31, 4-[3-(5-Benzyl-4,5,6,7-tetrahydro-1H-imidazo[4,5-c]pyridin-2-yl)-1H-indazol-6-yl]-2-fluoro-5-(2,2,2-trifluoro-ethyl)-phenol diethylamine salt]					186		66
